Common to all, as to type: functional, cell-based
Holding throughout (conditions): Mus musculus, N2a

A short description of assay [1]: Effect on the uptake of [3H]5-HT into differentiated N-2a cells.
Assay [2] can be described thus: Inhibition of [3H]- Thymidine incorporation into the DNA of differentiated neuroblastoma clone N-2a cells. (In general: Uptake of a labelled nucleoside into DNA is a usual measure of proliferation.)
Assay [3] is described as follows: Inhibition of [3H]- Thymidine incorporation into the DNA of differentiated neuroblastoma clone N-2a cells.

The text below walks through data of ChEMBL document CHEMBL1124877, “Synthesis and biological evaluation of 4-fluoro-, 7-fluoro-, and 4,7-difluoro-5,6-dihydroxytryptamines” (J Med Chem, 1990).

For `CN1CC(=O)NC1=N.NCCc1c[nH]c2c(F)c(O)c(O)cc12`, the concentration for half-maximal inhibition (IC50) in assay [1] was found to be 0.76 µM; in assay [2], 125 µM.

As for `CN1CC(=O)NC1=N.NCCc1c[nH]c2c(F)c(O)c(O)c(F)c12`, the half-maximal inhibitory concentration (IC50) in assay [1] was found to be 1.36 µM; in assay [2] it was 135 µM.

Take `CN1CC(=O)NC1=N.NCCc1c[nH]c2cc(O)c(O)c(F)c12`: the half-maximal inhibitory concentration (IC50) in assay [1] was found to be 0.55 µM; in assay [2], 117 µM.

Turning to `NCCc1c[nH]c2cc(O)c(O)cc12`, the 50% inhibitory concentration (IC50) in assay [1] was determined as 17.8 µM; in assay [3], 92 µM.

Broadly, the IC50 is the point on the concentration scale where inhibition reaches its midpoint.
